Where a SMILES comes first, the peptide text is derived from it.
Experiments:
[1] = tested on: monocrotaline-induced model of pulmonary arterial hypertension (PAH); assay: hemodynamic parameters and heart remodeling in monocrotaline-induced model of PAH; type: in vivo, male Wistar Rats; conditions: 0.06 mg/kg intranasal twice daily for 14 days
Excerpt: The monocrotaline (MCT) model is the most widely used animal model of PAH, being the oldest in existence and best described among the available models. This model offers the advantage of mimicking several key aspects of human PAH, including vascular remodeling, proliferation of smooth muscle cells, endothelial dysfunction, up-regulation of inflammatory cytokines, and right ventricle failure, after a single intraperitoneal or subcutaneous MCT injection (GOMEZ-ARROYO, J. G., FARKAS, L., ALHUSSAINI, A. A., FARKAS, D., KRASKAUSKAS, D., VOELKEL, N. F., BOGAARD, H. J. The Monocrotaline Model of Pulmonary Hypertension in Perspective. Am J Physiol Lund Cell Mol Physiol, 302(4): L363-9. 2012).
The currently preferred species for the study of MCT-induced PAH is the rat, with clinical signs of the illness manifesting in 3-7 days after the MCT injection in the form of anorexia, listlessness, failure to gain weight, and tachypnea. As the lung injury and vascular remodeling progress, the animals develop variable degrees of dyspnea, weakness, diarrhea and peripheral cyanosis (SCHOENTAL R., HEAD, M. A. Pathological changes in rats as a result of treatment with monocrotaline. Br J Cancer, 9(1):229-37. 1955). One week after the MCT injection, endothelial damage, inflammatory infiltration, and edema can be observed, but no increase in pulmonary arterial pressure (PAP). After two weeks, PAP is increased leading to right ventricle (RV) hypertrophy by the third week after drug administration (WEST, J., HEMMES, A. Experimental and transgenic models of pulmonary hypertension. Compr Physiol, 1(2):769-82. 2011).
To assess the potential benefit of SEQ ID NO: 19 in the treatment of PAH, we used adult healthy male Wistar Rats, which were then randomized into two groups: monocrotaline-induced PAH (MCT, n=14), in which animals received 60 mg/kg of MCT intraperitoneally (C2401, Sigma Chemical Co., St Louis, Mo., USA, Batch Number: WXBC4737V) and 2) control (CTRL, n=7), in which animals received a similar volume of saline solution intraperitoneally. This would be day 0 of the study. On the same day, prior to being randomized, the animals were subjected to echocardiographic analysis to establish a baseline. On day 14, another echocardiography was done, and PAH animals were further randomized to receive intranasal saline (SAL) or SEQ ID NO: 19 (0.06 mg/kg), twice daily for 14 days. On day 28, echocardiographies were repeated, RV exit area, left ventricle (LV) area, and PAT/PET (pulmonary arterial acceleration time (PAT)/pulmonary arterial ejection time (PET) ratio). In the PAH disease, the increase of PAP leads to an increase in RV area due to the increased pressure, and a decrease in the LV area, due to a reduction in blood flow to the left ventricle. […] Hemodynamic parameters were measured by invasive RV catheterization, including the systolic pressure of RV (RVSP) and the dP/dt ratio (a derivative of pressure/derivative of maximum time), which is correlated to the pressure in the RV.
The experiments were analyzed with two-way ANOVA, followed by Bonferroni's post-test to determine statistical significance. […]

[2] = tested on: monocrotaline-induced model of PAH; assay: anti-inflammatory effect in monocrotaline-induced model of PAH (lymph node weight, heart homogenate cytokines by ELISA); type: in vivo, male Wistar Rats; conditions: 0.06 mg/kg, MCT rats
Excerpt: In the experiment described in example 5, the animals were killed for postmortem analyses of inflammatory markers.
In 1 out of 5 patients with PAH, the mediastinal lymph nodes are enlarged due to inflammation-related edema (BERGIN, C. J., PARK, K. J. Lymph node enlargement in pulmonary arterial hypertension due to chronic thromboembolism. J Med Imaging Radiat Oncol, 52(1):18-23. 2008). Edematous organs weigh more, due to the increased liquid content, therefore we weighed several organs of the animals of example 5 post-euthanasia.
Samples of hearts of the monocrotaline study were investigated to uncover the potential anti-inflammatory action of SEQ ID NO: 19. Hearts were kept on ice during all sample homogenization processes. Lysis buffer containing 1% protease inhibitor cocktail (Sigma) diluted in phosphate-buffered saline (PBS) was added in a proportion of 1 mL for each sample. Sodium orthovanadate (SIGMA) 1 mM was also added. Tissues were homogenized and then centrifuged at 10,000 g for 10 min. Supernatants of each sample were collected into sterile identified tubes for measurements of total protein and cytokine levels (tumor necrosis factor (TNF)-α, interferon (INF)-γ, and interleukin (IL)-1β).
Total protein values in the samples were measured using the Bradford assay (BioRad, Hercules, Calif., USA), according to manufacturer's instructions. Briefly, the protocol was performed in a microplate in a final volume of 150 μl. A calibration curve linear range between 0.025 and 2.0 mg/ml was prepared with bovine serum albumin (BSA, SIGMA). Protein solutions were assayed in duplicate. Samples were diluted 20-fold into lysis buffer, and then 25 μl from these samples was loaded into each well. Using a multichannel pipet, 125 μl of Quick Start™ Bradford 1× Dye Reagent solution was added to yield a final volume of 150 μl. The samples were incubated at room temperature for 5 min, and the absorbance was then measured with a spectrophotometer at 595 nm (SpectraMax Microplate reader, Molecular Devices, San Jose, Calif., USA). The standard curve was plotted as a linear regression line that was interpolated with the mean absorbance of each sample in order to find a sample's total protein concentration expressed as mg/ml.
Concentrations of TNF-α, INF-γ, and IL-1β were measured using an enzyme-linked immunosorbent assay (ELISA) for heart homogenates. TNF-α (Catalog #900-K54) and INF-γ (Catalog #900-K98) kits were purchased from Peprotech (Rocky Hill, […]., USA) while the IL-1β (DY401) kit was from R&D Systems (Minneapolis, Minn., USA). The assays were performed in accordance with the manufacturer's recommendations.
Data analyses were performed with a statistical software package (Prism version 5.0, Graph-Pad Software, San Diego, Calif.). Data were expressed as mean±SEM. […]

[3] = RV catheterization, vs MCT+Vehicle
[4] = echocardiography, vs MCT+vehicle

CC[C@H](C)[C@H](NC(=O)[C@H](Cc1c[nH]c2ccccc12)NC(=O)[C@H](Cc1ccccc1)NC(C)=O)C(=O)N[C@@H](C)C(=O)N[C@@H](Cc1c[nH]c2ccccc12)C(=O)N[C@@H](Cc1ccc(O)cc1)C(=O)N[C@@H](CCCCN)C(=O)N[C@@H](CC(C)C)C(=O)N[C@@H](C)C(N)=O [SEQ ID NO: 19, Ac-Phe-Trp-Ile-Ala-Trp-Tyr-Lys-Leu-Ala-NH2] (Ac-FWIAWYKLA-NH2)
dP/dt Max ratio [1, 3]: decrease | systolic pressure of RV (RVSP) [1, 3]: decrease in RVSP | LV area [1, 4]: increase in LV area | PAT/PET ratio [1, 4]: increases the PAT/PET ratio to values similar to the non-treated group (control) | RV exit area [1, 4]: decrease in RV exit area | IL-1β in heart homogenates ([2]; ELISA): decreases the cytokines to values similar to control | INF-γ in heart homogenates ([2]; ELISA): decreases the cytokines to values similar to control | TNF-α in heart homogenates ([2]; ELISA): decreases the cytokines to values similar to control | edematous weight gain of mediastinal lymph nodes ([2]; post-euthanasia organ weight): able to reduce the edematous weight gain

Reference: US10905738B2, “Synthetic peptides, prodrugs, pharmaceutical compositions and uses” (Biozeus Desenvolvimento De Produtos Biofarmacêuticos, priority 2018, dated 2021)
